The source of these data is ChEMBL document CHEMBL1201862, “PubChem BioAssay data set” (2004).

SMILES strings stand for the structures.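 Assay format: 96-well plates, 48-hour exposure. GI50: concentration for 50% inhibition of growth.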 The source made the active and inactive calls. Rule as the data show it: active = GI50 up to about 1.1 µM and inactive = higher.

What all share (experiment): growth of human tumour cells (NCI), 48 h
In assay [1] the test system is NCI-H226.
In assay [2] the test system is Hs-578T.
Assay [3] concerns HOP-62.
Assay [4] deals with SK-MEL-2.
Assay [5] has as its system PC-3.
Assay [6] concerns UACC-62.
Assay [7] relates to RXF 393.
The subject of assay [8] is MOLT-4.
For assay [9], the system named is NCI-H460.
The test system of assay [10] is NCI-H23.
Assay [11] concerns NCI/ADR-RES.
In assay [12] the test system is HCT-15.
Assay [13] deals with SF-539.
Assay [14] deals with Malme-3M.
Assay [15] deals with CCRF-CEM.
The subject of assay [16] is MDA-N.
Assay [17] concerns BT-549.
Assay [18] relates to SK-MEL-5.
In assay [19] the test system is MCF7.

Take `COc1c(-c2nc3ccc(N4CCN(C)CC4)nc3[nH]2)cc(OC)c2c1nc(CCl)n2C`: the GI50 in assay [1] is 19.9 µM (inactive); in assay [2], 32.9 µM (inactive); in assay [3], 21.4 µM (inactive); in assay [4] it was 11.6 µM (inactive); in assay [5], 11.2 µM (inactive); in assay [6] it was 10.4 µM (inactive). For the same compound, the GI50 is 16 µM (inactive) in [7]; 18.1 µM (inactive) in assay [8]; 20.6 µM (inactive) in [9]; 20.1 µM (inactive) in assay [10]; 56.9 µM (inactive) in assay [11]; 26.3 µM in assay [12]. Moreover, the GI50 was 4.99 µM (inactive) in assay [13]; 17.5 µM (inactive) in assay [14]; 25.2 µM (inactive) in [15]; 30.5 µM (inactive) in assay [16]; 18.6 µM (inactive) in assay [17].
As to `Clc1ccc(C2=CCN3CC=C(c4ccc(Cl)cc4)C23)cc1`, the GI50 in assay [1] is 24 µM (inactive); in assay [2], 13.5 µM (inactive); in assay [3] it was 13.8 µM (inactive); in assay [4], 15.5 µM (inactive); in assay [6], 7.24 µM (inactive); in assay [8] it was 5.28 µM (inactive). The GI50 is 9.98 µM (inactive) in [9]; 12 µM (inactive) in assay [10]; 12.2 µM (inactive) in assay [11]; 11.1 µM in assay [12]; 15.9 µM (inactive) in assay [13]; 13.6 µM (inactive) in assay [14]. Further, the GI50 is 12.8 µM (inactive) in [15]; 10.8 µM (inactive) in assay [16]; 2.47 µM (inactive) in [18]; 13.9 µM (inactive) in [19]; 11.6 µM (inactive) in assay [17].
With `COC(=O)[C@@]1(Cc2ccc(OC(C)=O)cc2)Cc2cc3ccccc3n2N1`, the GI50 in assay [1] is 63.4 µM (inactive); in assay [2], 82.8 µM (inactive); in [3], > 100 µM (inactive); in assay [4], 18.2 µM (inactive); in assay [5] it was 30 µM (inactive); in assay [6], 57.4 µM (inactive). Besides, the GI50 was 26.8 µM (inactive) in [8]; 25.3 µM (inactive) in [10]; 26.5 µM (inactive) in [11]; 53.5 µM in [12]; 58.7 µM (inactive) in assay [13]; 47.5 µM (inactive) in assay [14]. Also, the GI50 is 26.5 µM (inactive) in [15]; 26.5 µM (inactive) in assay [16]; 18.2 µM (inactive) in [18]; 29.9 µM (inactive) in assay [19]; 28.2 µM (inactive) in assay [17].
`CC1(C)OC[C@@H](O)[C@H](Br)CO1`: the GI50 in assay [1] was > 100 µM (inactive); in assay [2], 68.2 µM (inactive); in [3] it was > 100 µM (inactive); in assay [4], > 100 µM (inactive); in [5] it was > 100 µM (inactive); in assay [6] it was > 100 µM (inactive). Besides, the GI50 was > 100 µM (inactive) in assay [7]; 65.8 µM (inactive) in assay [8]; > 100 µM (inactive) in assay [9]; > 100 µM (inactive) in [10]; over 100 µM in [12]; > 100 µM (inactive) in [13]. The GI50 in [14], in [15], in assay [16], in assay [19] and in [17] was > 100 µM (inactive) each time.
Take `Cc1cc(NS(=O)(=O)c2ccc(Nc3c4ccccc4nc4c(C(=O)NCCO)cccc34)cc2)no1`: the GI50 is 21.2 µM (inactive) in [2]; 32.9 µM (inactive) in [3]; 22.2 µM (inactive) in assay [4]; 39.2 µM (inactive) in [5]; 20.2 µM (inactive) in assay [6]; 7.41 µM (inactive) in [8]. Also, the GI50 in [9] was 28.6 µM (inactive); in [10], 39.2 µM (inactive); in assay [11], > 100 µM (inactive); in assay [12] it was 24.9 µM; in assay [14] it was 28.1 µM (inactive); in [15], 15.2 µM (inactive). In addition, the GI50 in assay [16] was 35.8 µM (inactive); in assay [18] it was 23.4 µM (inactive); in assay [19], 14.9 µM (inactive); in [17], 16.8 µM (inactive).
For `O=C(CSCC(=O)N/N=C/c1ccccc1)N/N=C\c1ccccc1`, the GI50 in [1], in assay [2], in assay [3], in assay [4], in assay [5] and in assay [6] was > 100 µM (inactive) throughout. The GI50 in [7] was 65.8 µM (inactive); in assay [8], 68.2 µM (inactive); in [9], > 100 µM (inactive); in assay [10], > 100 µM (inactive); in assay [11], > 100 µM (inactive); in assay [12] it was over 100 µM. In addition, the GI50 was 81.3 µM (inactive) in [13]; > 100 µM (inactive) in [14]; > 100 µM (inactive) in assay [15]; > 100 µM (inactive) in assay [18]; > 100 µM (inactive) in assay [19]; 2.2 µM (inactive) in assay [17].
Take `O=C1/C(=N/N=C(c2ccccc2)c2ccccc2)c2ccccc2-c2ccccc21`: the GI50 in [1] was 38.5 µM (inactive); in assay [2] it was 29.6 µM (inactive); in assay [3], > 100 µM (inactive); in assay [4] it was > 100 µM (inactive); in [5], 64 µM (inactive); in assay [6] it was 55.2 µM (inactive). For the same compound, the GI50 is > 100 µM (inactive) in assay [7]; 22.5 µM (inactive) in assay [8]; > 100 µM (inactive) in [9]; 74 µM (inactive) in [10]; 54 µM (inactive) in [11]; 37.8 µM in [12]. Moreover, the GI50 in assay [13] is > 100 µM (inactive); in assay [14] it was 78.5 µM (inactive); in [18], 99.5 µM (inactive); in [19], > 100 µM (inactive); in [17], 65 µM (inactive).
Take `CC1(C)CC(=O)C2(CC(CSc3ccccc3)C(CS(=O)(=O)c3ccccc3)C2)C(=O)C1` (stereo unspecified): the GI50 in assay [1] was > 100 µM (inactive); in [2], > 100 µM (inactive); in assay [3] it was > 100 µM (inactive); in [4], > 100 µM (inactive); in [5] it was 30.8 µM (inactive); in assay [6], > 100 µM (inactive). In addition, the GI50 in assay [7] was > 100 µM (inactive); in assay [8] it was > 100 µM (inactive); in [10] it was > 100 µM (inactive); in assay [11], > 100 µM (inactive); in [12], over 100 µM; in [13] it was > 100 µM (inactive). Besides, the GI50 in [15], in assay [18], in assay [19] and in assay [17] was > 100 µM (inactive) each time.
On to `c1ccc(-c2ccc(-c3cc4ccccc4[nH]3)cc2)cc1`, for which the GI50 in [1], in assay [2], in assay [3], in assay [4], in [5] and in assay [6] was > 100 µM (inactive) in each case. For the same compound, the GI50 in [8] is > 100 µM (inactive); in assay [9] it was > 100 µM (inactive); in [10] it was > 100 µM (inactive); in assay [11], > 100 µM (inactive); in assay [12], over 100 µM; in [13] it was > 100 µM (inactive). Besides, the GI50 is > 100 µM (inactive) in assay [14]; 87.7 µM (inactive) in [15]; > 100 µM (inactive) in assay [16]; > 100 µM (inactive) in assay [18]; > 100 µM (inactive) in [19]; > 100 µM (inactive) in [17].
As for `CONC(C)=O`, the GI50 in assay [1], in assay [2], in assay [3], in assay [4], in assay [5] and in [6] was > 100 µM (inactive) each time. In addition, the GI50 in assay [8] is > 100 µM (inactive); in [9], > 100 µM (inactive); in assay [10], > 100 µM (inactive); in assay [11] it was > 100 µM (inactive); in assay [12], over 100 µM; in assay [13] it was > 100 µM (inactive). The GI50 in assay [14], in assay [15], in assay [16], in assay [18], in assay [19] and in assay [17] was > 100 µM (inactive) each time.
Turning to `O=C(O)CCCc1ccc2ccc3ccccc3c2c1`, the GI50 in assay [1] is 78.2 µM (inactive); in assay [2] it was 38.8 µM (inactive); in assay [3], 34.8 µM (inactive); in assay [4] it was 26.7 µM (inactive); in [5] it was 34.8 µM (inactive); in [6], 38.3 µM (inactive). The GI50 is 15.3 µM (inactive) in assay [7]; 65.5 µM (inactive) in assay [8]; 58.3 µM (inactive) in assay [9]; > 100 µM (inactive) in assay [10]; 84.3 µM (inactive) in assay [11]; 51.1 µM in assay [12]. The GI50 in assay [14] was 39.4 µM (inactive); in [16], > 100 µM (inactive); in assay [18], 55.2 µM (inactive); in assay [19], > 100 µM (inactive); in assay [17], 69 µM (inactive).
Regarding `COc1ccccc1-c1nc(O)c2ccccc2n1`, the GI50 in [1] is 68.1 µM (inactive); in assay [2], > 100 µM (inactive); in assay [3] it was > 100 µM (inactive); in [4], > 100 µM (inactive); in [5], > 100 µM (inactive); in assay [6] it was > 100 µM (inactive). In addition, the GI50 in [7] is > 100 µM (inactive); in assay [8], > 100 µM (inactive); in [9] it was > 100 µM (inactive); in [10], > 100 µM (inactive); in assay [11], > 100 µM (inactive); in [12], over 100 µM. The GI50 in assay [14], in [15], in [16], in assay [18], in [19] and in assay [17] was > 100 µM (inactive) throughout.
